Experiments:
Experiment in all cases: relative viability (nuclei count vs DMSO), 5 days (fraction); higher = more cells survive
[1] = compound: CC[C@H](Nc1ncnc2[nH]cnc12)c1nc2cccc(F)c2c(=O)n1-c1ccccc1 [Idelalisib] + COc1cccc2cc(-c3nc([C@H]4CC[C@H](C(=O)O)CC4)n4ncnc(N)c34)[nH]c12 [OSI-027] (partner 0.5 µM)
In short: (§1)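 Lung cancer cell lines were seeded in 1536-well plates and dosed by pin tool the next day, with either a single drug or a fixed anchor-drug dose combined with five library-drug doses (not always all listed) spaced in √10 steps. Five days later, one step fixed the cells and stained their nuclei (final 0.05% Triton X-100, 1% formaldehyde, 1 ug/ml Hoechst), and nuclei were counted on 4× images. Relative viability is the nuclei count in treated wells divided by the count in vehicle wells, and each value is the median of duplicate plates.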

[2] = compound: Nc1nc2[nH]cc(CCc3ccc(C(=O)N[C@@H](CCC(=O)O)C(=O)O)cc3)c2c(=O)[nH]1 [Pemetrexed] + CS(=O)(=O)CCNCc1ccc(-c2ccc3ncnc(Nc4ccc(OCc5cccc(F)c5)c(Cl)c4)c3c2)o1 [Lapatinib] (partner 2 µM)
In short: as §1

[3] = compound: Nc1nc2[nH]cc(CCc3ccc(C(=O)N[C@@H](CCC(=O)O)C(=O)O)cc3)c2c(=O)[nH]1 [Pemetrexed] + O=C(CCCCCCC(=O)Nc1ccccc1)NO [Vorinostat] (partner 1 µM)
In short: as §1

[4] = compound: Nc1nc2[nH]cc(CCc3ccc(C(=O)N[C@@H](CCC(=O)O)C(=O)O)cc3)c2c(=O)[nH]1 [Pemetrexed] + CS(=O)(=O)N1CCN(Cc2cc3nc(-c4cccc5[nH]ncc45)nc(N4CCOCC4)c3s2)CC1 [Pictilisib] (partner 1 µM)
In short: as §1

Row | Cell Line | relative viability ([1]; first compound 0.04 µM) | relative viability ([1]; first compound 0.1265 µM) | relative viability ([1]; first compound 0.4 µM) | relative viability ([1]; first compound 1.265 µM) | relative viability ([1]; first compound 4 µM) | relative viability ([2]; first compound 0.002 µM) | relative viability ([2]; first compound 0.006325 µM) | relative viability ([2]; first compound 0.02 µM) | relative viability ([2]; first compound 0.06325 µM) | relative viability ([2]; first compound 0.2 µM) | relative viability ([3]; first compound 0.002 µM) | relative viability ([3]; first compound 0.006325 µM) | relative viability ([3]; first compound 0.02 µM) | relative viability ([3]; first compound 0.06325 µM) | relative viability ([3]; first compound 0.2 µM) | relative viability ([4]; first compound 0.002 µM) | relative viability ([4]; first compound 0.006325 µM) | relative viability ([4]; first compound 0.02 µM) | relative viability ([4]; first compound 0.06325 µM) | relative viability ([4]; first compound 0.2 µM)
1 | NCI-H2085 | 0.738 | 1.01 | 0.521 | 0.725 | 0.325 | 0.717 | 0.692 | 0.88 | 0.801 | 0.768 | 0.763 | 0.775 | 0.897 | 0.817 | 0.806 | 0.503 | 0.425 | 0.506 | 0.548 | 0.507
2 | NCI-H2087 | 0.593 | 0.513 | 0.324 | 0.633 | 0.319 | 0.965 | 0.952 | 1.21 | 0.927 | 0.644 | 0.662 | 0.751 | 1.06 | 0.591 | 0.757 | 0.692 | 0.79 | 0.938 | 0.67 | 0.581
3 | NCI-H2126 | 0.67 | 0.678 | 0.462 | 0.732 | 0.704 | 0.75 | 0.747 | 0.789 | 0.747 | 0.739 | 0.638 | 0.719 | 0.777 | 0.798 | 0.688 | 0.451 | 0.479 | 0.494 | 0.487 | 0.436
4 | NCI-H2170 | 0.722 | 0.793 | 0.637 | 0.609 | 0.649 | 0.302 | 0.282 | 0.268 | 0.293 | 0.297 | 0.564 | 0.813 | 0.899 | 0.823 | 0.45 | 0.303 | 0.307 | 0.242 | 0.305 | 0.276
5 | NCI-H2228 | 0.687 | 0.725 | 0.453 | 0.637 | 0.597 | 0.928 | 0.854 | 1.4 | 0.784 | 0.379 | 0.807 | 0.493 | 0.749 | 0.413 | 0.296 | 0.194 | 0.427 | 0.379 | 0.35 | 0.238
6 | NCI-H2347 | 0.379 | 0.332 | 0.367 | 0.348 | 0.257 | 0.658 | 0.954 | 0.904 | 0.867 | 0.565 | 0.49 | 0.487 | 0.609 | 0.468 | 0.436 | 0.392 | 0.545 | 0.601 | 0.525 | 0.606
7 | NCI-H2405 | 0.675 | 0.648 | 0.433 | 0.612 | 0.516 | 1.13 | 1.05 | 1.14 | 1.04 | 1.07 | 0.929 | 1.2 | 1.07 | 1.02 | 0.96 | 0.455 | 0.436 | 0.507 | 0.474 | 0.355
8 | NCI-H3122 | 0.879 | 0.952 | 0.729 | 0.941 | 0.764 | 1.01 | 1.02 | 1.02 | 0.97 | 0.847 | 1.12 | 0.893 | 0.96 | 0.755 | 0.454 | 0.6 | 0.584 | 0.628 | 0.526 | 0.338
9 | PC-3 [JPC-3] | 0.712 | 0.747 | 0.639 | 0.694 | 0.571 | 0.423 | 0.502 | 0.501 | 0.471 | 0.451 | 0.628 | 1.15 | 0.837 | 0.922 | 0.782 | 0.625 | 0.687 | 0.821 | 0.743 | 0.663
10 | PC-14 | 0.946 | 1.05 | 0.721 | 0.338 | 0.754 | 0.194 | 0.271 | 0.38 | 0.291 | 0.223 | 0.656 | 0.636 | 0.775 | 0.226 | 0.123 | 0.663 | 0.618 | 0.642 | 0.321 | 0.133
11 | RERF-LC-KJ | 0.632 | 0.563 | 0.436 | 0.502 | 0.516 | 0.739 | 0.835 | 0.842 | 0.892 | 0.692 | 0.621 | 0.581 | 0.762 | 0.597 | 0.5 | 0.579 | 0.471 | 0.558 | 0.594 | 0.277
12 | SK-LU-1 | 0.383 | 0.39 | 0.27 | 0.369 | 0.272 | 0.772 | 0.853 | 0.96 | 0.804 | 0.695 | 0.684 | 0.782 | 0.887 | 0.763 | 0.795 | 0.43 | 0.559 | 0.727 | 0.513 | 0.496
13 | SK-MES-1 | 0.666 | 0.611 | 0.427 | 0.218 | 0.467 | 0.473 | 0.423 | 0.469 | 0.453 | 0.457 | 1.07 | 0.994 | 1.18 | 1.11 | 0.993 | 0.34 | 0.327 | 0.349 | 0.322 | 0.401
14 | SW 1573 | 0.625 | 0.656 | 0.518 | 0.492 | 0.531 | 1.12 | 1.11 | 1.19 | 1.07 | 1.12 | 0.697 | 0.541 | 1.04 | 0.747 | 0.653 | 0.421 | 0.475 | 0.488 | 0.533 | 0.463

From the supplement of paper PMC10307832
